From the NIST ThermoML archive (doi:10.1021/acs.jced.5b00934)

Conditions: Liquid, Vibrating tube method

CCC(C)O (stereo not drawn) [butan-2-ol]
Conditions	mass density [kg/m3]
323.15 K, 57941 kPa	822.2
323.15 K, 65042 kPa	826.2
323.16 K, 83 kPa	780.1
323.16 K, 310 kPa	780.3
323.16 K, 904 kPa	780.9
323.16 K, 2023 kPa	781.9
323.16 K, 2969 kPa	782.8
323.16 K, 22069 kPa	798.7
323.16 K, 30034 kPa	804.5
323.16 K, 32030 kPa	805.9
323.16 K, 33179 kPa	806.7
323.16 K, 34081 kPa	807.3
323.16 K, 35135 kPa	808
323.16 K, 44962 kPa	814.4
323.16 K, 48021 kPa	816.3
323.16 K, 55018 kPa	820.5
323.16 K, 60048 kPa	823.4
323.16 K, 62109 kPa	824.6
323.16 K, 66222 kPa	826.9
328.15 K, 97 kPa	775.5
328.15 K, 549 kPa	775.9
328.15 K, 2980 kPa	778.3
328.15 K, 6989 kPa	782.1
328.15 K, 9026 kPa	784
328.15 K, 10174 kPa	785
328.15 K, 15005 kPa	789.1
328.15 K, 17974 kPa	791.5
328.15 K, 22112 kPa	794.8
328.15 K, 28057 kPa	799.3
328.15 K, 30020 kPa	800.7
328.15 K, 32096 kPa	802.2
328.15 K, 33090 kPa	802.9
328.15 K, 34106 kPa	803.6
328.15 K, 38003 kPa	806.3
328.15 K, 40189 kPa	807.7
328.15 K, 42227 kPa	809.1
328.16 K, 325 kPa	775.7
328.16 K, 909 kPa	776.3
328.16 K, 1025 kPa	776.4
328.16 K, 2032 kPa	777.5
328.16 K, 4986 kPa	780.3
328.16 K, 12064 kPa	786.6
328.16 K, 20081 kPa	793.3
328.16 K, 25008 kPa	797.1
328.16 K, 33187 kPa	802.9
328.16 K, 35148 kPa	804.3
328.16 K, 45203 kPa	811.1
328.16 K, 48119 kPa	812.8
328.16 K, 50027 kPa	814
328.16 K, 52217 kPa	815.4
328.16 K, 55140 kPa	817.1
328.16 K, 58016 kPa	818.7
328.16 K, 59968 kPa	819.8
328.16 K, 61968 kPa	820.9
328.16 K, 65013 kPa	822.7
328.16 K, 66143 kPa	823.3
333.15 K, 100 kPa	770.5
333.15 K, 350 kPa	770.7
333.15 K, 494 kPa	770.9
333.15 K, 901 kPa	771.3
333.15 K, 1016 kPa	771.5
333.15 K, 2000 kPa	772.4
333.15 K, 3021 kPa	773.4
333.15 K, 5004 kPa	775.4
333.15 K, 7066 kPa	777.4
333.15 K, 8994 kPa	779.1
333.15 K, 10031 kPa	780
333.15 K, 11980 kPa	781.8
333.15 K, 15020 kPa	784.5
333.15 K, 17985 kPa	786.9
333.15 K, 22042 kPa	790.2
333.15 K, 25059 kPa	792.7
333.15 K, 28048 kPa	794.9
333.15 K, 29961 kPa	796.3
333.15 K, 32126 kPa	798
333.15 K, 32780 kPa	798.4
333.15 K, 32804 kPa	798.4
333.15 K, 33981 kPa	799.2
333.15 K, 35081 kPa	800
333.15 K, 38040 kPa	802.1
333.15 K, 39970 kPa	803.4
333.15 K, 45112 kPa	806.9
333.15 K, 47953 kPa	808.7
333.15 K, 50048 kPa	810.1
333.15 K, 52052 kPa	811.3
333.15 K, 55007 kPa	813.2
333.15 K, 62024 kPa	817.4
333.15 K, 64970 kPa	819.1
333.15 K, 66117 kPa	819.8
333.16 K, 20151 kPa	788.8
333.16 K, 42099 kPa	804.9
333.16 K, 58002 kPa	815
333.16 K, 60019 kPa	816.2
338.15 K, 99 kPa	765.5
338.15 K, 292 kPa	765.7
338.15 K, 539 kPa	766
338.15 K, 892 kPa	766.4
338.15 K, 1007 kPa	766.5
338.15 K, 3160 kPa	768.7
338.15 K, 4911 kPa	770.5
338.15 K, 10039 kPa	775.5
338.15 K, 12002 kPa	777.3
338.15 K, 15149 kPa	780.1
338.15 K, 18051 kPa	782.6
338.15 K, 19986 kPa	784.2
338.15 K, 21999 kPa	785.9
338.15 K, 32975 kPa	794.4
338.15 K, 35130 kPa	796
338.15 K, 40077 kPa	799.5
338.15 K, 44943 kPa	802.8
338.15 K, 48022 kPa	804.9
338.15 K, 52052 kPa	807.5
338.15 K, 55069 kPa	809.5
338.15 K, 58033 kPa	811.3
338.15 K, 60108 kPa	812.6
338.15 K, 62047 kPa	813.7
338.15 K, 65005 kPa	815.5
338.15 K, 66128 kPa	816.2
338.16 K, 2082 kPa	767.6
338.16 K, 6964 kPa	772.5
338.16 K, 8976 kPa	774.5
338.16 K, 24990 kPa	788.3
338.16 K, 27960 kPa	790.7
338.16 K, 30065 kPa	792.3
338.16 K, 31895 kPa	793.7
338.16 K, 32982 kPa	794.5
338.16 K, 33953 kPa	795.1
338.16 K, 37933 kPa	798
338.16 K, 41987 kPa	800.8
338.16 K, 50029 kPa	806.2
343.15 K, 90 kPa	760.2
343.15 K, 290 kPa	760.5
343.15 K, 469 kPa	760.6
343.15 K, 910 kPa	761.1
343.15 K, 1032 kPa	761.3
343.15 K, 1994 kPa	762.3
343.15 K, 4978 kPa	765.5
343.15 K, 7040 kPa	767.6
343.15 K, 9056 kPa	769.6
343.15 K, 10137 kPa	770.7
343.15 K, 12089 kPa	772.5
343.15 K, 14318 kPa	774.6
343.15 K, 15186 kPa	775.4
343.15 K, 17997 kPa	777.9
343.15 K, 19975 kPa	779.7
343.15 K, 22054 kPa	781.5
343.15 K, 25145 kPa	784.1
343.15 K, 27969 kPa	786.3
343.15 K, 30130 kPa	788.1
343.15 K, 31848 kPa	789.4
343.15 K, 32904 kPa	790.1
343.15 K, 33014 kPa	790.3
343.15 K, 33950 kPa	790.9
343.15 K, 35008 kPa	791.7
343.15 K, 38168 kPa	794.1
343.15 K, 39957 kPa	795.4
343.15 K, 42001 kPa	796.8
343.15 K, 44975 kPa	798.9
